Activity calls are given as the source filed them. The rule behind the calls is not given here.
How the values were obtained:
Type in all cases: functional
[1] = target: T1, Histidine-rich protein PFHRP-II (Plasmodium falciparum) (UniProt P05227); test: Inhibition of beta-hematin formation at drug to heme molar equivalent ratio of 10 by infrared spectra measured after 18 hrs
T1 sequence (whole entry): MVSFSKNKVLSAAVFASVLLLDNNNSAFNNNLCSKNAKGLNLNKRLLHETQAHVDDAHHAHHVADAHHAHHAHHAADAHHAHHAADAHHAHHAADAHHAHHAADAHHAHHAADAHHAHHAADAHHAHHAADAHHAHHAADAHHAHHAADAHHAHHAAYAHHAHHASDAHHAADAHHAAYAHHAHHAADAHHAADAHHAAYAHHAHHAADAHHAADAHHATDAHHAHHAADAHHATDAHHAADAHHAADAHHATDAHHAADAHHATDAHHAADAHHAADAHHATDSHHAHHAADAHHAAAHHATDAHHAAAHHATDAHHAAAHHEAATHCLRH

[2] = target: T1, Histidine-rich protein PFHRP-II (Plasmodium falciparum); test: Inhibition of beta-hematin formation at drug to heme molar equivalent ratio of 15 by infrared spectra measured after 18 hrs
[3] = target: T1, Histidine-rich protein PFHRP-II (Plasmodium falciparum); test: Inhibition of beta-hematin formation at drug to heme molar equivalent ratio of 3 by infrared spectra measured after 18 hrs
[4] = target: T1, Histidine-rich protein PFHRP-II (Plasmodium falciparum); test: Inhibition of beta-hematin formation at 1:1 drug to heme ratio by infrared spectra measured after 18 hrs
[5] = target: T1, Histidine-rich protein PFHRP-II (Plasmodium falciparum); test: Inhibition of beta-hematin formation at drug to heme molar equivalent ratio of 2 by infrared spectra measured after 18 hrs

For NCCNc1ccnc2cc(Cl)ccc12, which Activity [1] is on record?
The Activity was “Active”.

Which Activity [2] does the source give for C[C@H]1[C@H](OC(=O)CCC(=O)O)O[C@@H]2O[C@@]3(C)CC[C@H]4[C@H](C)CC[C@@H]1[C@@]24OO3 here?
Its Activity is “inactive”.

How did the Activity [1] turn out when CCN(CC)CCCC(C)Nc1ccnc2cc(Cl)ccc12 (centres undefined) was run?
Its Activity is “Active”.

With CO[C@H]1O[C@@H]2O[C@@]3(C)CC[C@H]4[C@H](C)CC[C@@H]([C@H]1C)[C@@]24OO3 as the compound, how does the Activity [2] read?
Its Activity is “inactive”.

With COc1cc(NC(C)CCCN)c2ncccc2c1 (centres undefined) as the compound, how does the Activity [2] read?
Its Activity is “inactive”.

With COc1cc(NC(C)CCCNC2CCC3(CC2)OOC2CCC(C(C)C)=CC2O3)c2ncccc2c1 (centres undefined) as the compound, how does the Activity [3] read?
Its Activity is “Active”.

Which Activity [4] does the source give for C[C@@H]1CC[C@H]2[C@@H](C)C(=O)O[C@@H]3O[C@@]4(C)CC[C@@H]1[C@]32OO4 here?
Its Activity is “Active”.

And the Activity [2]?
The Activity was “inactive”.

CC(C)C1=CC2OC3(CCC(NCCNc4ccnc5cc(Cl)ccc45)CC3)OOC2CC1 (centres undefined) was tested. Which Activity [5] did it give?
The Activity was “Active”.

Source: ChEMBL document CHEMBL1153842, “Trioxaquines and heme-artemisinin adducts inhibit the in vitro formation of hemozoin better than chloroquine” (Antimicrob Agents Chemother, 2007)
